Reference: ChEMBL document CHEMBL4376803, “Recent Advances in the Exploration of Therapeutic Analogues of Gramicidin S, an Old but Still Potent Antimicrobial Peptide” (J Med Chem, 2019)
Square brackets hold non-standard residues; d marks the D form. Peptide text beside a SMILES is read from it. Orn = NCCC[C@H](N)C(=O)O

Key:
Erythrocyte [1] = assay: Haemolytic activity in human RBC after 4 hrs by visual method; format: ADME, cell-based
[2] = Therapeutic index, ratio of HC90 for hemolytic activity in human erythrocytes to MIC against Enterococcus faecalis ATCC 29212; format: toxicity, cell-based; conditions: read-out: TI
[3] = Therapeutic index, ratio of HD100 for hemolytic activity in human erythrocytes to MIC against Escherichia coli ATCC 25922; format: toxicity, cell-based; conditions: read-out: TI
[4] = Therapeutic index, ratio of HD100 for hemolytic activity in human erythrocytes to MIC against Staphylococcus aureus ATCC 29213; format: toxicity, cell-based; conditions: read-out: TI
[5] = Therapeutic index, ratio of HD100 for hemolytic activity in human RBC to MIC against Pseudomonas aeruginosa H187; format: toxicity; conditions: human red blood cells, read-out: TI
[6] = Therapeutic index, ratio of HD100 for hemolytic activity in human erythrocytes to MIC against methicillin-resistant Staphylococcus aureus ATCC 4330; format: toxicity, cell-based; conditions: read-out: TI
[7] = Therapeutic index, ratio of HD100 for hemolytic activity in human RBC to MIC against Candida albicans; format: toxicity; conditions: human red blood cells, read-out: TI
Erythrocyte [8] = assay: Haemolytic activity in human RBC after 30 mins by spectrophotometric analysis; format: ADME, cell-based; conditions: 0.5 h
[9] = Hemolytic activity in sheep erythrocytes; format: ADME, cell-based, Ovis aries, Erythrocyte
[10] = Haemolytic activity in human erythrocytes incubated for 30 mins; format: ADME, cell-based, Erythrocyte
[11] = Haemolytic activity in human erythrocytes at 100 ug/ml after 30 mins relative to control; format: ADME, cell-based, Erythrocyte; conditions: read-out: Activity
Lipopolysaccharide (LPS) = assay: Displacement of Dansyl-polymyxin from Pseudomonas aeruginosa LPS by fluorescence method; conditions: read-out: I50
[12] = Hemolytic activity against RBC (unknown origin) at 100 ul after 4 hrs; format: ADME, cell-based, Erythrocyte; conditions: red blood cells (unknown origin)
[13] = Hemolytic activity in sheep RBC incubated for 30 mins; format: ADME, cell-based, Ovis aries, Erythrocyte; conditions: sheep red blood cells
[14] = Therapeutic index, ratio of HC90 for hemolytic activity in human erythrocytes to MIC against Staphylococcus aureus ATCC 25923; format: toxicity, cell-based; conditions: read-out: TI
[15] = Haemolytic activity in human RBC incubated for 1 hr; format: ADME, cell-based, Erythrocyte; conditions: human red blood cells
[16] = Haemolytic activity in human RBC after 4 hrs; format: ADME, cell-based, Erythrocyte; conditions: human red blood cells
[17] = Therapeutic index, ratio of HD100 for hemolytic activity in human RBC to MIC against Escherichia coli UB1005; format: toxicity; conditions: human red blood cells, read-out: TI
[18] = Therapeutic index, ratio of HD100 for hemolytic activity in human RBC to MIC against Enterococcus faecalis ATCC 29212; format: toxicity; conditions: human red blood cells, read-out: TI
[19] = Therapeutic index, ratio of HD100 for hemolytic activity in human erythrocytes to MIC against Pseudomonas aeruginosa ATCC 27853; format: toxicity, cell-based; conditions: read-out: TI
[20] = (§1) Haemolytic activity in human erythrocytes; format: ADME, cell-based, Erythrocyte; conditions: human erythrocytes
Erythrocyte [21] = assay: as §1; format: ADME, cell-based; conditions: erythrocyte
[22] = Therapeutic index, ratio of HD100 for hemolytic activity in human erythrocytes to MIC against Enterococcus faecalis ATCC 29212; format: toxicity, cell-based; conditions: read-out: TI
[23] = Therapeutic index, ratio of HC90 for hemolytic activity in human erythrocytes to MIC against Staphylococcus epidermidis ATCC 12228; format: toxicity, cell-based; conditions: read-out: TI
[24] = Therapeutic index, ratio of HD100 for hemolytic activity in human RBC to MIC against Staphylococcus aureus K147; format: toxicity; conditions: human red blood cells, read-out: TI
[25] = Therapeutic index, ratio of HC90 for hemolytic activity in human erythrocytes to MIC against Escherichia coli ATCC 25922; format: toxicity, cell-based; conditions: read-out: TI

CC(C)C[C@@H]1NC(=O)[C@H](CCCN)NC(=O)[C@H](C(C)C)NC(=O)[C@@H]2CCCN2C(=O)[C@@H](Cc2ccccc2)NC(=O)[C@H](CC(C)C)NC(=O)[C@H](CCCN)NC(=O)[C@H](C(C)C)NC(=O)[C@@H]2CCCN2C(=O)[C@@H](Cc2ccccc2)NC1=O (cyclo(L[dF]PV[Orn]L[dF]PV[Orn]))
HD100 (Erythrocyte [1]): 12.5 µg/mL | selectivity ratio [2]: 1.5 | selectivity ratio [3]: 2 | selectivity ratio [4]: 15.6 | selectivity ratio [5]: 0.6 | selectivity ratio [6]: 7.8 | selectivity ratio [7]: 4 | HC90 (Erythrocyte [8]): 12 µg/mL | HC50 [9]: 25 to 35 µg/mL | HC50 at 0.5 h [10]: 5 to 10 µg/mL | hemolysis at 0.5 h, 100 ug/ml [11]: 80% | IC50 (Lipopolysaccharide (LPS)): 295 µM | HC50 at 4 h [12]: 5 to 31.2 µg/mL | HC50 at 0.5 h [13]: 25 to 35 µg/mL | selectivity ratio [14]: 3 | HC50 at 1 h [15]: 14.3 µg/mL | HC50 at 4 h [16]: 17.5 µg/mL | selectivity ratio [17]: 2 | selectivity ratio [18]: 4.5 | selectivity ratio [19]: 1 | HC50 [20]: 12 µg/mL | Activity (Erythrocyte [21]): 62.5 µg/mL | selectivity ratio [22]: 7.8 | selectivity ratio [23]: 6 | selectivity ratio [24]: 8.3 | selectivity ratio [25]: 0.38
